Test results: patent US20190352297A1, “SELECTIVE AURORA A KINASE INHIBITORS” (UNIVERSITAT BERN, priority 2017, published 2019)
Read-outs that look alike come from different tables or passages of the source.

Key:
HeLa Kyoto cells [1] = test: Chromosome misalignment during metaphase; type: cell-based, human; conditions: for misaligned chromosomes: HeLa Kyoto cells
Experimental: (§1) HeLa Kyoto cells were cultured in high-glucose DMEM with GlutaMAX (Life Technologies) media supplemented with 10% fetal calf serum (FCS) in a humidified 5% CO2 incubator at 37° C. For plasmid transfections, cells were seeded at 80-90% confluence. 4 μg of plasmid DNA in 100 μl OptiMEM and 4 μl of Lipofectamine 2000 (Life Technologies) in 100 μl OptiMEM were incubated in parallel for 5 minutes, mixed for 20 minutes and added to each well. All Aurora A clones were constructed using full-length Aurora A as a template with appropriate PCR primer pairs. […] GFP-Aurora AR137A and GFP-Aurora AW277A were engineered using a site directed mutagenesis kit (Agilent Technologies, no. 210515) with appropriate primers. For determining the mitotic index and the chromosome misalignment phenotype, cells were incubated with various concentrations of compounds for 20 h before analysis. Cells were likewise treated with 0.25 μM MLN8237 (Selleckchem, no. S1133) or 5 μM ZM447439 (Selleckchem, no. S1103). For flow cytometry analysis, 50 nM […] and 2.5 μM ZM447439 were used. For rescue experiments, HeLa Kyoto cells were first transfected with GFP-Aurora A, GFP-Aurora AR137A or GFP-Aurora AW277A for 20 h, followed by incubation with 9 for another 20 h before cells were fixed with cold methanol and stained. To assess the impact of compound 9 on cell cycle progression, DNA content was analyzed after propidium iodide staining using FACS (BD Accuri C6 flow cytometer).
For immunofluorescence, cells were fixed in cold methanol, washed in PBT (PBS supplemented with 0.05% Tween-20) and stained with the following primary antibodies: 1:200 rabbit anti-pT288 (Cell Signaling, C39D8), 1:200 rabbit anti-pH3S10 (Cell Signaling, D2C8), 1:500 mouse anti-α-tubulin (Transduction Laboratories, 612709), 1:300 mouse anti-GFP (MAB3580, Millipore), 1:200 anti-TPX2 (Santa Cruz Biotechnology, sc-32863), anti-Aurora A (Invitrogen, 458900). Secondary antibodies were anti-mouse conjugated to Alexa488 or Alexa568, as well as anti-rabbit conjugated to Alexa488 or Alexa568, all used at 1:500 (Invitrogen). Confocal images were acquired on a Zeiss LSM 710 confocal microscope equipped with a Axiocam MRm (B/VVW) CCD camera using a 63×NA 1.0 oil objective and processed in ImageJ and Adobe Photoshop, maintaining relative image intensities within a series.

Aurora A = target: T1, Aurora A (Homo sapiens, UniProt O14965); test: Active site directed binding competition assay, KD (DiscoveRx); conditions: free Aurora A
T1 sequence (O14965 1-403): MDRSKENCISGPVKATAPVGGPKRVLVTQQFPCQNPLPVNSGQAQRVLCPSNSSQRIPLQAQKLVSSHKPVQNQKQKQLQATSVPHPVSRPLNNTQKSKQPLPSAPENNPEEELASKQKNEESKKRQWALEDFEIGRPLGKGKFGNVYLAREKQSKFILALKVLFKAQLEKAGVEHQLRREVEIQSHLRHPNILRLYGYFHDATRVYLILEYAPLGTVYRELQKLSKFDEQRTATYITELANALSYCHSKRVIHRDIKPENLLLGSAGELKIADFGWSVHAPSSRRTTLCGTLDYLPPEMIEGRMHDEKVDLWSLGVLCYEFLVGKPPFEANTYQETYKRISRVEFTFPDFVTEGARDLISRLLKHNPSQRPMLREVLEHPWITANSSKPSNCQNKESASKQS
Experimental: The kinome profiling of compound 9 was conducted by DiscoveRx. In total, 456 kinases were assayed (scanMAX). For most assays, kinase-tagged T7 phage strains were grown in parallel in 24-well blocks in an E. coli host derived from the BL21 strain. E. coli were grown to log-phase and infected with T7 phage from a frozen stock (multiplicity of infection=0.4) and incubated with shaking at 32° C. until lysis (90-150 minutes). The lysates were centrifuged (6000 g) and filtered (0.2 μm) to remove cell debris. The remaining kinases were produced in HEK-293 cells and subsequently tagged with DNA for qPCR detection. […] The liganded beads were blocked with excess biotin and washed with blocking buffer (SeaBlock (Pierce), 1% BSA, 0.05% Tween 20, 1 mM DTT) to remove unbound ligand and to reduce non-specific phage binding. […] Test compounds were prepared as 40× stocks in 100% DMSO and directly diluted into the assay. All reactions were performed in polypropylene 384-well plates in a final volume of 0.04 ml. […] The kinase concentration in the eluates was measured by qPCR. […] was screened at 1 μM, and results for primary screen binding interactions were reported as % of control (PoC). PoC=(test compound signal−positive control signal)/(DMSO signal−positive control signal). PoC values at 1 μM 9 for all kinases were visualized using TREEspot (DiscoveRx). […] KD values were determined with a standard dose-response curve using the Hill equation.

HeLa Kyoto cells [2] = test: DNA content analysis by flow cytometry; type: cell-based, human; conditions: 48 h, 9 even at 10 μM
Experimental: as §1, with “For rescue experiments, HeLa Kyoto cells were first transfected with GFP-Aurora A, GFP-Aurora AR137A or GFP-Aurora AW277A for 20 h, followed by incubation with 9 for another 20 h before cells were fixed with cold methanol and stained.” left out

AuroraB/INCENP complex = target: T2, AuroraB/INCENP complex (Homo sapiens, UniProt Q96GD4); test: HTRF kinase assay, AuroraB/INCENP complex; type: biochemical
T2 construct: purchased Millipore 14-835
Experimental: Aurora A and AuroraB kinases were assayed using the homogeneous time-resolved fluorescence (HTRF) KinEASE STK2 kit from Cisbio (France). […] For both enzymes, the reactions were run for 30 min at room temperature and stopped by the addition of 10 μL of detection buffer containing EDTA, antiphospho-Ser/Thr antibody labelled with europium cryptate, and XL-665 conjugated streptavidin (62.5 nM final concentration). After incubation at room temperature for one hour, fluorescence was measured at 620 nm (europium cryptate) and 665 nm (XL-665) after excitation at 317 nm (lag time 60 μs, integration time 500 μs) using a Tecan Infinite M1000 PRO microplate reader (Greiner 384-well plates, white, non-binding, small volume). The ratio of fluorescence (665 nm/620 nm) was calculated for each well and the results were expressed as follows: specific signal=ratio (sample)−ratio (negative control), where ratio=665 nm/620 nm×10^4. Compounds were measured in threefold serial dilutions at 10 different concentrations, covering the concentration range from no to full inhibition. Each concentration was measured in duplicates, and two independent determinations were made for each IC50 value. IC50 curves were generated using a four-parameter logistic model (XLfit from IDBS).

T2 sequence (Q96GD4 whole entry): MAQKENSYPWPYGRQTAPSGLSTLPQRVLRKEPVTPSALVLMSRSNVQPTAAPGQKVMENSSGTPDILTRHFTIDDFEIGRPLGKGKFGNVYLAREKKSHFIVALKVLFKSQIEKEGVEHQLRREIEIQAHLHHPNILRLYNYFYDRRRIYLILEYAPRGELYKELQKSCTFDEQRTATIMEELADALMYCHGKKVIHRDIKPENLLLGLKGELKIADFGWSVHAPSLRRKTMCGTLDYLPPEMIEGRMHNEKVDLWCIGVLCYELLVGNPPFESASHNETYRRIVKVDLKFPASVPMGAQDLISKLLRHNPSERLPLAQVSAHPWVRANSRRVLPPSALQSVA
T2 sequence (Q9NQS7 whole entry partner): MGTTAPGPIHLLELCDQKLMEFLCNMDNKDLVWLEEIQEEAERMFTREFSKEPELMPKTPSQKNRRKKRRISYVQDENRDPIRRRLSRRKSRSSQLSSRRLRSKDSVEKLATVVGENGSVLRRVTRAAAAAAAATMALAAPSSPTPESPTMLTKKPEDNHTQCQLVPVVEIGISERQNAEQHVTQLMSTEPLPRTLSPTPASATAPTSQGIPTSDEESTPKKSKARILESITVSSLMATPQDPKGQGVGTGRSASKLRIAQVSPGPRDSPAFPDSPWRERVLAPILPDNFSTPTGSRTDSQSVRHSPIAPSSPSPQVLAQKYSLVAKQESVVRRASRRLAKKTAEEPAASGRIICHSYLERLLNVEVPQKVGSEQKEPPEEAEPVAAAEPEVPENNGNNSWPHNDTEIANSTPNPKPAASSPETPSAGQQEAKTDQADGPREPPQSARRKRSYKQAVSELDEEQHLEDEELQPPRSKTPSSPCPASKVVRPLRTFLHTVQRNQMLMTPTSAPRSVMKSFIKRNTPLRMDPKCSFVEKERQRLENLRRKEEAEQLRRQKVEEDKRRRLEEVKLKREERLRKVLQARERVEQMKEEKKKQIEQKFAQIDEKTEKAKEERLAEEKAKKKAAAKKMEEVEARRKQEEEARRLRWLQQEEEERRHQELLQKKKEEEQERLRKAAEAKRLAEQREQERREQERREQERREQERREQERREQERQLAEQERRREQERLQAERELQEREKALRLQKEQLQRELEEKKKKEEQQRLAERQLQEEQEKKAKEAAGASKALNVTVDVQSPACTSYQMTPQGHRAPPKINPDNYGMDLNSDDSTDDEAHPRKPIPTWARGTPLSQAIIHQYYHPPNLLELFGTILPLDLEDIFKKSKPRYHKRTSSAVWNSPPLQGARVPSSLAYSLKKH

For CCc1ccc(N=C2SC(=Cc3ccnc(Nc4ccc(C(=O)O)cn4)c3)C(=O)N2C)cc1 [Compound 9], the misaligned chromosomes (HeLa Kyoto cells [1]; 4 μM) was ~20%, the misaligned chromosomes (HeLa Kyoto cells [1]; 10 μM) was ~80% and the misaligned chromosomes (HeLa Kyoto cells [1]; 25 μM) was ~85%. The EC50 (HeLa Kyoto cells [1]; cellular activity as summarised in text, read-out: cellular activity EC50) was > 1000 nM, the EC50 (HeLa Kyoto cells [1]; read-out: phenotypic EC50, defective chromosome alignment during metaphase) was 6000 nM and the Kd (Aurora A) was 5 nM. For the same molecule, the “accumulation of cells with 8N and 16N DNA contents” value (HeLa Kyoto cells [2]) was “did not occur”, the IC50 (AuroraB/INCENP complex; 20 μM ATP, HTRF, read-out: IC50 Aurora B in complex with INCENP (biochemical)) was 149 ± 3 nM and the “weaker inhibition of Aurora B/INCENP compared to KD measured with free Aurora B” value (AuroraB/INCENP complex; IC50 Aurora B/INCENP versus KD free Aurora B) was 15 fold.
